Measurements: US20210308078A1, “NEW USE OF INHIBITORS OF MONOAMINE OXIDASE TYPE B” (ISTITUTO Di RICERCA PEDiATRiCA CITTA DELLA SPERANZA, priority 2018, published 2021)

Experiments:
MAOA, MAOB = conditions: cited from earlier work
caspase-1 = assay: Caspase-1 activation assay (FLICA 660-YVAD-FMK, FACS) in human macrophages; format: cell-based; conditions: LPS/ATP and LPS/nigericin, 8 h; pargyline 100 μM, rasagiline 5 μM, NAC 5 mM
Protocol: The cells were then marked with fluorescent antibodies anti-MHCII and analysed by FACS. The activity of the inflammasome was expressed as % of the cells that were positive for caspase-1 and for MHCII in relation to the total. The values are the average of at least 3 independent experiments±SEM.
(§1) Human monocytes derived from buffy coats obtained from healthy donors were prepared as described in Cathcart, M. K., and Bhattacharjee, A. (2014). […] For macrophage differentiation, 5×10^6 monocytes, seeded in 24-well plates, were cultivated in RPMI 20% FBS in the presence of 10 ng/ml GM-CSF (Miltenyi Biotec) for 7 days. For inflammasome activation, 2×10^6 cells in 6-well plates were treated for 8 h with 100 ng/m1 of LPS Ultra-pure combined with ATP (1 mM) or nigericine (15 μM, added the last 30 min).
The activation of caspase-1 in human macrophages was monitored by way of flow cytometry analysis. The cells, subjected to various treatments, were incubated at 37° C. for 3 h with FLICA 660-YVAD-FMK and washed according to the manufacturer's instructions (FLICA®660 Caspase-1 Assay Kit; ImmunoChemistry Technologies). […] The analysis was performed using CellQuest software (Becton Dickinson) in cells positive for caspase-1 and MHCII.

IL-1β [1] = assay: IL-1β release in human macrophages (ELISA); format: cell-based; conditions: LPS/ATP and LPS/nigericin, 8 h, pargyline 100 μM, rasagiline 5 μM, NAC 5 mM
Protocol: FIG. 6. […] The levels of IL-1β in the supernatants were quantified by means of ELISA test. The values are the average of at least 3 independent experiments±SEM.
as §1

IL-1β [2] = assay: IL-1β release in murine macrophages (ELISA); format: cell-based; conditions: LPS 100 ng/ml + ATP 5 mM, 4 h, pargyline 100 μM, rasagiline 5 μM
Excerpt: FIG. 7. […] The levels of IL-1β in the supernatants were quantified by means of ELISA test.
Murine macrophages isolated from bone marrow were obtained from the tibia and femoral bone as described in Coll, R. C., Robertson, A. A., Chae, J. J., Higgins, S. C., Munoz-Planillo, R., Inserra, M. C., Vetter, I., Dungan, L. S., Monks, B. G., Stutz, A., et al. (2015). A small-molecule inhibitor of the NLRP3 inflammasome for the treatment of inflammatory diseases. Nature medicine 21, 248-255.
[…] ATP (5 mM, added the last 30 min).
The culture media sampled from stimulated and control human and murine macrophages were stored at −80° C. The levels of IL-1β0 were determined by means of commercially available ELISA kits (eBioscience) and were developed using 3,3′,5,5′-tetramethyl benzidine (TMB). The optical densities were measured at 450 nm by means of a microplate reader (Sunrise, Tecan; Switzerland).

MAO = conditions: human macrophages stimulated 8 h with LPS, LPS/ATP or LPS/nig; pargyline 100 μM, rasagiline 5 μM
Protocol: The intracellular levels of dopamine and norepinephrine (both substrates of MAO) were measured by means of mass spectrometry on cell lysates extracted with methanol:water (70:30). […] The values are the average of at least 3 independent experiments±SEM.
as §1

human macrophages [3] = conditions: stimulation with LPS/ATP and LPS/nigericine, 3 h; rasagiline 5 μM
Protocol: The images were acquired by means of fluorescence microscopy. The data are expressed as fluorescence intensity and are normalised with respect to unstimulated cells (unst). The values are the average of at least 3 independent experiments±SEM.
as §1
ROS were determined by means of carboxymethyl-dichlorofluorescein (CM-DCFDA). […] After 3 h of stimulation the cells were loaded with CM-DCFDA (2.5 μM) for 30 min. All of the steps were performed at 37° C. with 5% CO2. The cells were washed with PBS and the images were acquired using a Leica DMI6000B microscope (Wetzlar, Germany). The fluorescence was measured at 6-8 random intervals per slide and an average value was recorded. The fluorescence emission was performed using excitation filters of emission 488±20 nm and 645±37 nm. The data were acquired and analysed by means of Metafluor software (Universal Imaging).

human macrophages [4] = conditions: 8 h of stimulation; rasagiline 5 μM pre-treatment
Protocol: After 8 h of stimulation, the macrophages were loaded with tetramethylrhodamine methyl ester (TMRM, 50 nM) to determine the mitochondrial membrane potential. After acquisition of images by fluorescence microscopy, the uncoupling agent FCCP (4 μM) was added to collapse the mitochondrial potential. The difference of the fluorescence intensity obtained before and after FCCP is shown in the graph and reflects the mitochondrial membrane potential. The data are expressed as fluorescence intensity and are normalised with respect to unstimulated cells (unst). The values are the average of at least 3 independent experiments±SEM. […]
The mitochondrial membrane potential was measured on the basis of the accumulation of tetramethylrhodamine methyl ester (TMRM, Molecular Probes) as described in Sorato, E., Menazza, S., Zulian, A., Sabatelli, P., Gualandi, F., Merlini, L., Bonaldo, P., Canton, M., Bernardi, P., and Di Lisa, F. (2014). […] The medium was then substituted with a medium devoid of serum integrated with TMM 25 nM for 30 minutes, and the cell fluorescence images were acquired using a Leica microscope (Wetzlar, Germany) DMI6000B. The data were acquired and analysed by means of Metafluor software (Universal Imaging). An excitation of 540±20 nm and a 590 nm longpass emission filter were used to reveal the fluorescence. […]

NF-κB = conditions: murine macrophages
Excerpt: The values are the average of at least 3 independent experiments±SEM.

mice treated with LPS = conditions: rasagiline 0.5 mg/kg per os 12 h before LPS 10 mg/kg ip, 8 h
Protocol: In parallel, a group of mice (ct) were treated with only the vehicle (PBS, ip). At the end, a sample of blood was taken and the plasma levels of IL-1β0 were quantified by means of Elisa test. […] The values are the average of at least 3 independent experiments±SEM.
In parallel, a group of mice (ct) were treated with only the vehicle (PBS, ip). At the end, peritoneal washing with 2 ml of PBS was performed, as well as a leukocyte count.
Adult mice were treated with a single injection of LPS (10 mg/kg ip) for 8 h or of vehicle (PBS, ip). […] At the end, the animals were sacrificed and samples were taken of blood and the peritoneal exudate.
Male mice (strain C57BL/6J) of age 8-10 weeks and weight approximately 30 gr. were subjected to an intraperitoneal injection with LPS (10 mg/kg, L4130, Sigma-Aldrich) or vehicle (saline solution, called PBS). […] The treated animals were sacrificed 8 hours after the injection (considered as time 0), by means of cervical dislocation. Immediately after the sacrifice an intraperitoneal washing was performed with 2 ml of PBS and any exudate present was collected to determine the leukocyte count. In addition, samples of blood were taken and frozen after obtaining the plasma for analysis of IL-1β by means of ELISA test.

SMILES | selectivity of inhibition for MAOA / MAOB isoforms (MAOA, MAOB) | activity of the inflammasome (% cells positive for caspase-1 and MHCII) (caspase-1) | release of IL-1β in supernatants (IL-1β [1]) | release of IL-1β in supernatants (IL-1β [2]) | intracellular concentration of dopamine (MAO) | production of ROS (human macrophages [3]) | mitochondrial depolarisation (mitochondrial membrane potential, TMRM) (human macrophages [4]) | activation of NF-κB (NF-κB) | protein levels of pro-IL-1β (NF-κB) | concentration of leucocytes in the peritoneal liquid (mice treated with LPS) | plasma levels of IL-1β (mice treated with LPS)
N[C@@H]1C[C@H]1c1ccccc1 (racemic) [tranylcypromine] | lack selectivity |  |  |  |  |  |  |  |  |  | 
CC(=O)N[C@@H](CS)C(=O)O [N-acetylcysteine] |  | effect is similar | effect is similar |  |  |  |  |  |  |  | 
C#CCN(C)Cc1ccccc1 [pargyline] | able to inhibit both the isoforms | significantly inhibit the activity of the inflammasome | significantly inhibit the release of IL-1β | significantly inhibit the release of IL-1β | increases subsequently |  |  |  |  |  | 
NNCCc1ccccc1 [phenelzine] | lack selectivity |  |  |  |  |  |  |  |  |  | 
C#CCN[C@@H]1CCc2ccccc21 [rasagiline] | MAOB are selectively inhibited | significantly inhibit the activity of the inflammasome | significantly inhibit the release of IL-1β | significantly inhibit the release of IL-1β | increases subsequently | reduces the production of ROS | significantly reduce the mitochondrial depolarisation | reduce the activation of NF-κB | reduce | clear reduction of the concentration of leucocytes | drastically reduces the increase of plasma levels of IL-1β
